The results in this text go back to patent publication US20160347813A1, “GLUCAGON ANALOGUES” (Zealand Pharma A/S, priority 2011, published 2016).

For one experiment, the target named is T1, human GLP-1-R (Homo sapiens, UniProt P43220).
T1 construct: The DNA encoding the Glucagon-R or the GLP-1-R was amplified by PCR using primers encoding terminal restriction sites for subcloning; expressed in transfected cells
The experiment can be described thus: GLP-1 receptor efficacy assay (cAMP generation in HEK293 cells). It counts as cell-based. Conditions: cAMP generation in HEK293 cells expressing GLP-1 receptor. An excerpt: (§1) The DNA encoding the Glucagon-R or the GLP-1-R was amplified by PCR using primers encoding terminal restriction sites for subcloning. The 5′-end primers additionally encoded a near Kozak consensus sequence to ensure efficient translation. The fidelity of the DNA encoding the Glucagon-R and the GLP-1-R was confirmed by DNA sequencing. The PCR products encoding the Glucagon-R or the GLP-1-R were subcloned into a mammalian expression vector containing a neomycin (G418) resistance marker. The mammalian expression vectors encoding the Glucagon-R or the GLP-1-R were transfected into HEK293 cells by a standard calcium phosphate transfection method. 48 hr after transfection cells were seeded for limited dilution cloning and selected with 1 mg/ml G418 in the culture medium. Three weeks later 12 surviving colonies of Glucagon-R and GLP-1-R expressing cells were picked, propagated and tested in the Glucagon-R and GLP-1-R efficacy assays as described below. One Glucagon-R expressing clone and one GLP-1-R expressing clone were chosen for compound profiling.
(§2) On the day of analysis, growth medium was removed and the cells washed once with 200 μl Tyrode buffer. Cells were incubated in 100 μl Tyrode buffer containing increasing concentrations of test peptides, 100 μM IBMX, and 6 mM glucose for up 15 min at 37° C. The reaction was stopped by addition of 25 μl 0.5 M HCl and incubated on ice for 60 min. The cAMP content was estimated using the FlashPlate® cAMP kit from Perkin-Elmer according to manufacturer instructions. EC50 and relative efficacies compared to reference compounds (glucagon and GLP-1) were estimated by computer aided curve fitting.

For a further experiment, the target named is T2, human Glucagon-R (Homo sapiens, UniProt P47871).
T2 construct: The DNA encoding the Glucagon-R or the GLP-1-R was amplified by PCR using primers encoding terminal restriction sites for subcloning; expressed in transfected cells
T2 sequence (P47871 26-477): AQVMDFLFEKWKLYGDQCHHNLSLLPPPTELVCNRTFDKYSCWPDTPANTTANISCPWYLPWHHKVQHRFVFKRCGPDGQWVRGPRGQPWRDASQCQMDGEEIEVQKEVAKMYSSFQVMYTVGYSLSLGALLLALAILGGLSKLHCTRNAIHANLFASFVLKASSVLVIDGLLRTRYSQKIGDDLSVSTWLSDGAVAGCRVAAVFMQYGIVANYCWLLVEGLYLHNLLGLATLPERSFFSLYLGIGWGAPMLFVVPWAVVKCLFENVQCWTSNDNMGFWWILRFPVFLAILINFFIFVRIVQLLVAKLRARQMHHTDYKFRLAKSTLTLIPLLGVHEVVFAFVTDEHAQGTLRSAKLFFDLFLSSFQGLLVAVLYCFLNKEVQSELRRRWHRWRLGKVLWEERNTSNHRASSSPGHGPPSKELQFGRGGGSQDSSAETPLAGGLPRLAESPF
Briefly: Glucagon receptor efficacy assay (cAMP generation in HEK293 cells). Particulars: cAMP generation in HEK293 cells expressing Glucagon receptor. Format: cell-based.
Source text: as §1, §2

Residues, ends and D or L forms follow the SMILES beside them.

T1 sequence (P43220 24-463): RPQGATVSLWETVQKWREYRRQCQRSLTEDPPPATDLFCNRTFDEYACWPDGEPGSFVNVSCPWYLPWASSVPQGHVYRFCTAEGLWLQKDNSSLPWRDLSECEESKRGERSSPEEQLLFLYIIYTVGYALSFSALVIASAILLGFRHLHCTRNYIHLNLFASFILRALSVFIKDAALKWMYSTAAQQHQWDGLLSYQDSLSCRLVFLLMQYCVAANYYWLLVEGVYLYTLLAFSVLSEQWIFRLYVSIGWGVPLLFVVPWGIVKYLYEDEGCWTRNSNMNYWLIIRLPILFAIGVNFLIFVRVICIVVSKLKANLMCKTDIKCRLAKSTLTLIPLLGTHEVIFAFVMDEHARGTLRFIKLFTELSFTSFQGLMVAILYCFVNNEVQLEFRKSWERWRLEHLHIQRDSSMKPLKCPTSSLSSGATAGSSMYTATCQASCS

As for `CCCCCCCCCCCCCCCC(=O)N[C@@H](CCC(=O)NCCCC[C@H](NC(=O)[C@H](CC(=O)O)NC(=O)[C@H](CC(C)C)NC(=O)[C@H](Cc1ccc(O)cc1)NC(=O)[C@H](CCCCN)NC(=O)[C@H](CO)NC(=O)[C@H](Cc1ccc(O)cc1)NC(=O)[C@H](CC(=O)O)NC(=O)[C@H](CO)NC(=O)[C@@H](NC(=O)[C@H](Cc1ccccc1)NC(=O)[C@@H](NC(=O)CNC(=O)[C@H](CCC(N)=O)NC(=O)C(C)(C)NC(=O)[C@@H](N)Cc1c[nH]cn1)[C@@H](C)O)[C@@H](C)O)C(=O)N[C@@H](CCCNC(=N)N)C(=O)N[C@@H](CCCNC(=N)N)C(=O)N[C@@H](C)C(=O)N[C@@H](CCCCN)C(=O)N[C@@H](CC(=O)O)C(=O)N[C@@H](Cc1ccccc1)C(=O)N[C@H](C(=O)N[C@@H](CCC(=O)O)C(=O)N[C@@H](Cc1c[nH]c2ccccc12)C(=O)N[C@@H](CC(C)C)C(=O)N[C@@H](CC(C)C)C(=O)N[C@@H](CO)C(=O)N[C@@H](C)C(N)=O)[C@@H](C)CC)C(=O)O` [Compound 1] (HELM PEPTIDE1{H.[Aib].Q.G.T.F.T.S.D.Y.S.K.Y.L.D.K.R.R.A.K.D.F.I.E.W.L.L.S.A.[am]}|PEPTIDE2{[CCCCCCCCCCCCCCCC(=O)[*:2]].[gGlu]}$PEPTIDE1,PEPTIDE2,16:R3-2:R2$$$V2.0), the EC50 – broadly, the concentration at which the effect is half-maximal – at human GLP-1-R turned out to be 0.12 nM.
Take `CCCCCCCCCCCCCCCC(=O)N[C@@H](CCC(=O)NCCCC[C@H](NC(=O)[C@H](CCC(=O)O)NC(=O)[C@H](CC(=O)O)NC(=O)[C@H](CC(C)C)NC(=O)[C@H](Cc1ccc(O)cc1)NC(=O)[C@H](CCCNC(=N)N)NC(=O)[C@H](CO)NC(=O)[C@H](Cc1ccc(O)cc1)NC(=O)[C@H](CC(=O)O)NC(=O)[C@H](CO)NC(=O)[C@@H](NC(=O)[C@H](Cc1ccccc1)NC(=O)[C@@H](NC(=O)CNC(=O)[C@H](Cc1c[nH]cn1)NC(=O)[C@H](CO)NC(=O)[C@@H](N)Cc1c[nH]cn1)[C@@H](C)O)[C@@H](C)O)C(=O)N[C@@H](CCCNC(=N)N)C(=O)N[C@@H](C)C(=O)N[C@@H](CCCNC(=N)N)C(=O)N[C@@H](CC(=O)O)C(=O)N[C@@H](Cc1ccccc1)C(=O)N[C@H](C(=O)N[C@@H](CCC(=O)O)C(=O)N[C@@H](Cc1c[nH]c2ccccc12)C(=O)N[C@@H](CC(C)C)C(=O)N[C@@H](CC(C)C)C(=O)N[C@@H](CO)C(=O)N[C@@H](C)C(N)=O)[C@@H](C)CC)C(=O)O` [Compound 10] (HELM PEPTIDE1{H.S.H.G.T.F.T.S.D.Y.S.R.Y.L.D.E.K.R.A.R.D.F.I.E.W.L.L.S.A.[am]}|PEPTIDE2{[CCCCCCCCCCCCCCCC(=O)[*:2]].[gGlu]}$PEPTIDE1,PEPTIDE2,17:R3-2:R2$$$V2.0): the EC50 on human Glucagon-R turned out to be 0.06 nM.
`CCCCCCCCCCCCCCCC(=O)N[C@@H](CCC(=O)NCCCC[C@H](NC(=O)[C@H](CCC(=O)O)NC(=O)[C@H](CC(=O)O)NC(=O)[C@H](CC(C)C)NC(=O)[C@H](Cc1ccc(O)cc1)NC(=O)[C@H](CCCNC(=N)N)NC(=O)[C@H](CO)NC(=O)[C@H](Cc1ccc(O)cc1)NC(=O)[C@H](CC(=O)O)NC(=O)[C@H](CO)NC(=O)[C@@H](NC(=O)[C@H](Cc1ccccc1)NC(=O)[C@@H](NC(=O)CNC(=O)[C@H](Cc1c[nH]cn1)NC(=O)C(C)(C)NC(=O)[C@@H](N)Cc1c[nH]cn1)[C@@H](C)O)[C@@H](C)O)C(=O)N[C@@H](CCCNC(=N)N)C(=O)N[C@@H](C)C(=O)N[C@@H](CCCNC(=N)N)C(=O)N[C@@H](CC(=O)O)C(=O)N[C@@H](Cc1ccccc1)C(=O)N[C@H](C(=O)N[C@@H](CCC(=O)O)C(=O)N[C@@H](Cc1c[nH]c2ccccc12)C(=O)N[C@@H](CC(C)C)C(=O)N[C@@H](CC(C)C)C(=O)N[C@@H](CO)C(=O)N[C@@H](C)C(N)=O)[C@@H](C)CC)C(=O)O` [Compound 12] (HELM PEPTIDE1{H.[Aib].H.G.T.F.T.S.D.Y.S.R.Y.L.D.E.K.R.A.R.D.F.I.E.W.L.L.S.A.[am]}|PEPTIDE2{[CCCCCCCCCCCCCCCC(=O)[*:2]].[gGlu]}$PEPTIDE1,PEPTIDE2,17:R3-2:R2$$$V2.0) yielded an EC50 at human GLP-1-R of 0.06 nM. That is a picomolar value.
On the same count and under the same terms, the figure for `CCCCCCCCCCCCCCCC(=O)N[C@@H](CCC(=O)NCCCC[C@H](NC(=O)[C@H](CCC(=O)O)NC(=O)[C@H](CC(=O)O)NC(=O)[C@H](CC(C)C)NC(=O)[C@H](Cc1ccc(O)cc1)NC(=O)[C@H](CCCNC(=N)N)NC(=O)[C@H](CO)NC(=O)[C@H](Cc1ccc(O)cc1)NC(=O)[C@H](CC(=O)O)NC(=O)[C@H](CO)NC(=O)[C@@H](NC(=O)[C@H](Cc1ccccc1)NC(=O)[C@@H](NC(=O)CNC(=O)[C@@H]1CCCN1C(=O)[C@@H](CO)NC(=O)[C@@H](N)Cc1c[nH]cn1)[C@@H](C)O)[C@@H](C)O)C(=O)N[C@@H](CCCNC(=N)N)C(=O)N[C@@H](C)C(=O)N[C@@H](CCCNC(=N)N)C(=O)N[C@@H](CC(=O)O)C(=O)N[C@@H](Cc1ccccc1)C(=O)N[C@H](C(=O)N[C@@H](CCC(=O)O)C(=O)N[C@@H](Cc1c[nH]c2ccccc12)C(=O)N[C@@H](CC(C)C)C(=O)N[C@@H](CC(C)C)C(=O)N[C@@H](CO)C(=O)N[C@@H](C)C(N)=O)[C@@H](C)CC)C(=O)O` [Compound 14] (HELM PEPTIDE1{H.[dS].P.G.T.F.T.S.D.Y.S.R.Y.L.D.E.K.R.A.R.D.F.I.E.W.L.L.S.A.[am]}|PEPTIDE2{[CCCCCCCCCCCCCCCC(=O)[*:2]].[gGlu]}$PEPTIDE1,PEPTIDE2,17:R3-2:R2$$$V2.0) is 0.12 nM.
Still for that read-out and setting: the figure for `CCCCCCCCCCCCCCCC(=O)N[C@@H](CCC(=O)NCCCC[C@H](NC(=O)[C@H](CCC(=O)O)NC(=O)[C@H](CC(=O)O)NC(=O)[C@H](CC(C)C)NC(=O)[C@H](Cc1ccc(O)cc1)NC(=O)[C@H](CCCNC(=N)N)NC(=O)[C@H](CO)NC(=O)[C@H](Cc1ccc(O)cc1)NC(=O)[C@H](CC(=O)O)NC(=O)[C@H](CO)NC(=O)[C@@H](NC(=O)[C@H](Cc1ccccc1)NC(=O)[C@@H](NC(=O)CNC(=O)[C@@H]1CCCN1C(=O)C(C)(C)NC(=O)[C@@H](N)Cc1c[nH]cn1)[C@@H](C)O)[C@@H](C)O)C(=O)N[C@@H](CCCNC(=N)N)C(=O)N[C@@H](C)C(=O)N[C@@H](CCCNC(=N)N)C(=O)N[C@@H](CC(=O)O)C(=O)N[C@@H](Cc1ccccc1)C(=O)N[C@H](C(=O)N[C@@H](CCC(=O)O)C(=O)N[C@@H](Cc1c[nH]c2ccccc12)C(=O)N[C@@H](CC(C)C)C(=O)N[C@@H](CC(C)C)C(=O)N[C@@H](CO)C(=O)N[C@@H](C)C(N)=O)[C@@H](C)CC)C(=O)O` [Compound 15] (HELM PEPTIDE1{H.[Aib].P.G.T.F.T.S.D.Y.S.R.Y.L.D.E.K.R.A.R.D.F.I.E.W.L.L.S.A.[am]}|PEPTIDE2{[CCCCCCCCCCCCCCCC(=O)[*:2]].[gGlu]}$PEPTIDE1,PEPTIDE2,17:R3-2:R2$$$V2.0) is 0.06 nM; for `CCCCCCCCCCCCCCCC(=O)N[C@@H](CCC(=O)NCCCC[C@H](NC(=O)[C@H](CCC(=O)O)NC(=O)[C@H](CC(=O)O)NC(=O)[C@H](CC(C)C)NC(=O)[C@H](Cc1ccc(O)cc1)NC(=O)[C@H](CCCNC(=N)N)NC(=O)[C@H](CO)NC(=O)[C@H](Cc1ccc(O)cc1)NC(=O)[C@H](CC(=O)O)NC(=O)[C@H](CO)NC(=O)[C@@H](NC(=O)[C@H](Cc1ccccc1)NC(=O)[C@@H](NC(=O)CNC(=O)[C@H](CCC(N)=O)NC(=O)C(C)(C)NC(=O)[C@@H](N)Cc1c[nH]cn1)[C@@H](C)O)[C@@H](C)O)C(=O)N[C@@H](CCCNC(=N)N)C(=O)N[C@@H](C)C(=O)N[C@@H](CCCCN)C(=O)N[C@@H](CC(=O)O)C(=O)N[C@@H](Cc1ccccc1)C(=O)N[C@H](C(=O)N[C@@H](CCC(=O)O)C(=O)N[C@@H](Cc1c[nH]c2ccccc12)C(=O)N[C@@H](CC(C)C)C(=O)N[C@@H](CC(C)C)C(=O)N[C@@H](CO)C(=O)N[C@@H](C)C(N)=O)[C@@H](C)CC)C(=O)O` [Compound 16] (HELM PEPTIDE1{H.[Aib].Q.G.T.F.T.S.D.Y.S.R.Y.L.D.E.K.R.A.K.D.F.I.E.W.L.L.S.A.[am]}|PEPTIDE2{[CCCCCCCCCCCCCCCC(=O)[*:2]].[gGlu]}$PEPTIDE1,PEPTIDE2,17:R3-2:R2$$$V2.0) it is 0.06 nM.
Same read-out and setting: the figure for `CCCCCCCCCCCCCCCC(=O)N[C@@H](CCC(=O)NCCCC[C@H](NC(=O)[C@H](CCC(=O)O)NC(=O)[C@H](CC(=O)O)NC(=O)[C@H](CC(C)C)NC(=O)[C@H](Cc1ccc(O)cc1)NC(=O)[C@H](CCCCN)NC(=O)[C@H](CO)NC(=O)[C@H](Cc1ccc(O)cc1)NC(=O)[C@H](CC(=O)O)NC(=O)[C@H](CO)NC(=O)[C@@H](NC(=O)[C@H](Cc1ccccc1)NC(=O)[C@@H](NC(=O)CNC(=O)[C@H](CCC(N)=O)NC(=O)[C@@H](CO)NC(=O)[C@@H](N)Cc1c[nH]cn1)[C@@H](C)O)[C@@H](C)O)C(=O)N[C@@H](CCCNC(=N)N)C(=O)N[C@@H](C)C(=O)N[C@@H](CCCCN)C(=O)N[C@@H](CC(=O)O)C(=O)N[C@@H](Cc1ccccc1)C(=O)N[C@H](C(=O)N[C@@H](CCC(=O)O)C(=O)N[C@@H](Cc1c[nH]c2ccccc12)C(=O)N[C@@H](CC(C)C)C(=O)N[C@@H](CC(C)C)C(=O)N[C@@H](CO)C(=O)N[C@@H](C)C(N)=O)[C@@H](C)CC)C(=O)O` [Compound 17] (HELM PEPTIDE1{H.[dS].Q.G.T.F.T.S.D.Y.S.K.Y.L.D.E.K.R.A.K.D.F.I.E.W.L.L.S.A.[am]}|PEPTIDE2{[CCCCCCCCCCCCCCCC(=O)[*:2]].[gGlu]}$PEPTIDE1,PEPTIDE2,17:R3-2:R2$$$V2.0) is 0.07 nM.
